In ChEMBL document CHEMBL2331498, “Mycoleptodiscins A and B, cytotoxic alkaloids from the endophytic fungus Mycoleptodiscus sp. F0194” (J Nat Prod, 2013):

What was measured:
[1] = system: IMR-90; experiment: Cytotoxicity against human IMR90 cells after 96 hrs by CellTiter-Glo assay; format: cell-based; details: IMR-90, 96 h
[2] = Cytotoxicity against human H460 cells after 96 hrs by CellTiter-Glo assay; format: functional, cell-based; details: NCI-H460, 96 h
[3] = system: PC-3; experiment: Cytotoxicity against human PC3 cells after 96 hrs by CellTiter-Glo assay; format: functional, cell-based; details: PC-3, 96 h
[4] = Cytotoxicity against human H522-T1 cells after 96 hrs by CellTiter-Glo assay; format: functional, cell-based; details: H522-T1, 96 h
[5] = system: A2058; experiment: Cytotoxicity against human A2058 cells after 96 hrs by CellTiter-Glo assay; format: functional, cell-based; details: A2058, 96 h

Q: With N#CC(=O)C#N [CARBONYL CYANIDE] as the compound, how does the IC50 [1] read?
A: 5000 nM

Q: For CC1(C)CCC[C@@]2(C)C1CC[C@@]1(C)C3=CC(=O)C(=O)c4[nH]cc(c43)C[C@@]12O (some centres undefined) [MYCOLEPTODISCIN B], which IC50 [1] is on record?
A: 410 nM

Q: What about the IC50 [2] of the same compound?
A: 660 nM

Q: And the IC50 [3]?
A: 600 nM

Q: What about the IC50 [4] of the same compound?
A: 630 nM

Q: What about the IC50 [5] of the same compound?
A: 780 nM

Q: For CC[C@]1(O)C[C@@H]2CN(CCc3c([nH]c4ccccc34)[C@@](C(=O)OC)(c3cc4c(cc3OC)N(C)[C@H]3[C@@](O)(C(=O)OC)[C@H](OC(C)=O)[C@]5(CC)C=CCN6CC[C@]43[C@@H]65)C2)C1 [VINBLASTINE], which IC50 [2] is on record?
A: 2 nM

Q: And the IC50 [3]?
A: 5 nM

Q: What about the IC50 [4] of the same compound?
A: 9 nM
